Test results published in patent EP0434038A1, “Fused imidazole derivatives, their production and use” (Takeda Chemical Industries, Ltd., priority 1989, dated 1991).

Tests used:
[1] = target: T1, A-II-receptor (Bos taurus, UniProt P25104); assay: displacement of 125I-angiotensin II from bovine adrenal cortex membranes; type: binding, membrane fraction; conditions: for inhibition at 1 µM: read-out: Radioreceptor Assay (%) / 1X10⁻⁶M; for inhibition at 0.1 µM: read-out: Radioreceptor Assay (%) / 1X10⁻⁷M
T1 construct: An A-II-receptor was prepared from the membrane fraction of bovine adrenal cortex
T1 sequence (P25104 1-359): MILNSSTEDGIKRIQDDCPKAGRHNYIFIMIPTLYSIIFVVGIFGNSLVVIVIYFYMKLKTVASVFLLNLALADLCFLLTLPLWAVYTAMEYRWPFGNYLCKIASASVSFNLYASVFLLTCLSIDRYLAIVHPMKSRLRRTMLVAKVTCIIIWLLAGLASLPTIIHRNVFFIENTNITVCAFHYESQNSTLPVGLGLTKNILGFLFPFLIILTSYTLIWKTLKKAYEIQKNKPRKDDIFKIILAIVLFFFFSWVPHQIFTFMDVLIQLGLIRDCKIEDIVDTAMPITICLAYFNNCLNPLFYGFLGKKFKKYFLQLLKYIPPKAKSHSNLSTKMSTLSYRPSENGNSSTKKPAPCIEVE
Experimental: Inhibition of binding of angiotensin-II to angiotensin receptor
An experiment of inhibition on the binding of angiotensin-II (A-II) to A-II-receptor was conducted by modifying the method of Douglas et al. [Endocrinology, 102, 685-696 (1978)]. An A-II-receptor was prepared from the membrane fraction of bovine adrenal cortex.
The compound of the present invention (10⁻⁷M or 10⁻⁶M ) and ¹²⁵I-A-II (1.85 kBq/50 µl) were added to the receptor membrane fraction, and the mixture was incubated at room temperature for one hour. The receptor-bound and free ¹²⁵I-A-II were separated through a filter (Whatman GF/B filter), and the radioactivity of ¹²⁵I-A-II bound to the receptor was measured.

[2] = system: Jcl : SD rats; assay: inhibition of the pressor response to angiotensin II in rats, oral; type: in vivo; conditions: Rattus norvegicus, p.o.
Description: Inhibitory effect of the compound of the present invention on pressor action of A-II
Jcl : SD rats (9 week old, male) were used. On the day previous to the experiment, these animals were applied with cannulation into the femoral artery and vein under anesthesia with pentobarbital Na. The animals were fasted but allowed to access freely to drinking water until the experiment was started. Just on the day of conducting the experiment, the artery cannula was connected with a blood-pressure transducer, and the average blood pressure was recorded by means of polygraph. Before administration of the drug, the pressor action due to intravenous administration of A-II (100 ng/kg) as the control was measured. The drugs were orally administered, and then, at each point of the measurement, A-II was administered intravenously, and the pressor action was similarly measured. By comparing the pressor action before and after administration of the drug, the percent inhibition by the drug on A-II-induced pressor action was evaluated.

## CCCCc1nc2cccnc2n1Cc1ccc(-c2ccccc2-c2nnn[nH]2)cc1 [compound 3, 2-Butyl-3-[2'-[(1H-tetrazol-5-yl)biphenyl-4-yl]methyl]imidazo[4,5-b]pyridine]
[1]
  inhibition at 1 µM: 92%
  inhibition at 0.1 µM: 63%
[2]; 10 mg/kg
  inhibition at 10 mg/kg: 50 to 70%
[2]
  inhibition at 30 mg/kg: > 70%

## CCCCc1nc2ncccc2n1Cc1ccc(-c2ccccc2-c2nnn[nH]2)cc1 [compound 4, 0.4 H2O]
[1]
  inhibition at 1 µM: 48%
  inhibition at 0.1 µM: 5%

## CCCCc1nc2nccnc2n1Cc1ccc(-c2ccccc2-c2nnn[nH]2)cc1 [compound 6, 2-Butyl-1-[[2'-(1H-tetrazol-5-yl)biphenyl-4-yl]methyl]imidazo[4,5-b]pyrazine, 0.4 H2O]
[1]
  inhibition at 1 µM: 81%
  inhibition at 0.1 µM: 43%

## CCc1nc2cccnc2n1Cc1ccc(-c2ccccc2-c2nnn[nH]2)cc1 [compound 9, 2-Ethyl-3-[[2'-(1H-tetrazol-5-yl)biphenyl-4-yl]methyl]imidazo[4,5-b]pyridine, 1/2 EtOAc]
[1]
  inhibition at 1 µM: 84%
  inhibition at 0.1 µM: 50%
[2]
  inhibition at 30 mg/kg: > 70%

## CCCCc1nc2cnccc2n1Cc1ccc(-c2ccccc2-c2nnn[nH]2)cc1 [compound 13, 2-Butyl-1-[[2'-(1H-tetrazol-5-yl)biphenyl]-methyl]imidazo[4,5-c]pyridine, 0.2 H2O]
[1]
  inhibition at 1 µM: 44%
  inhibition at 0.1 µM: 1%

## CCCCc1nc2ccncc2n1Cc1ccc(-c2ccccc2-c2nnn[nH]2)cc1 [compound 14, 2-Butyl-3-[[2'-(1H-tetrazol-5-yl)biphenyl]-methyl]imidazo[4,5-c]pyridine, 0.2 H2O]
[1]
  inhibition at 1 µM: 56%
  inhibition at 0.1 µM: 9%

## CCCCc1nc2cc(C)cnc2n1Cc1ccc(-c2ccccc2-c2nnn[nH]2)cc1 [compound 15, 2-Butyl-6-methyl-3-[[2'-(1H-tetrazol-5-yl)-biphenyl-4-yl]methyl]imidazo[5,4-b]pyridine, 0.3 H2O]
[1]
  inhibition at 1 µM: 75%
  inhibition at 0.1 µM: 32%

## CCCCc1nc2ncc(C)cc2n1Cc1ccc(-c2ccccc2-c2nnn[nH]2)cc1 [compound 16, 2-Butyl-6-methyl-1-[[2'-(1H-tetrazol-5-yl)-biphenyl-4-yl]methyl]imidazo[5,4-b]pyridine, 0.4 H2O]
[1]
  inhibition at 1 µM: 32%
  inhibition at 0.1 µM: 0%

## CCCc1nc2ccc(OC)nc2n1Cc1ccc(-c2ccccc2-c2nnn[nH]2)cc1 [compound 23, 5-Methoxy-2-propyl-3-[[2'-(1H-tetrazol-5-yl)-biphenyl-4-yl]methyl]imidazo[4,5-b]pyridine, 0.3 H2O]
[1]
  inhibition at 1 µM: 75%
  inhibition at 0.1 µM: 32%

## CCCCc1nc2cc(Br)c(C)nc2n1Cc1ccc(-c2ccccc2-c2nnn[nH]2)cc1 [compound 24, 6-Bromo-2-butyl-5-methyl-3-[[2'-(1H-tetrazol-5-yl)biphenyl-4-yl]methyl]imidazo[5,4-b]pyridine]
[1]
  inhibition at 1 µM: 9%
  inhibition at 0.1 µM: 0%
